assay: Human HepG2 cell viability assay in 384 well format; type: toxicity, cell-based; design: dose 125 nL, time 70.5 hour; cytotoxicity at 70.5 h: concentration not given beside the values; conditions: HepG2 cells, read-out: Inhibition

Structure (SMILES)	cytotoxicity at 70.5 h [%]
O=C(NCCCN1CCOCC1)c1ccc(Cl)cc1Cl	2.42
CCCN1CCC(NC(=O)Nc2ccc(OC)c(OC)c2)CC1	-1.26
c1cncc(-c2noc(CNc3ncnc4c3CCNCC4)n2)c1	-5.95
Cc1ccc(C(=O)NCC2CCN(Cc3ccccc3C#N)C2)cn1 (stereo unspecified)	-5.59
CCc1ccc(CN2CCN(Cc3ncc[nH]3)[C@H]3CS(=O)(=O)C[C@H]32)nc1	-6.57
c1ccc(-c2cnn3cc(CN4CCC5(CCO5)CC4)cnc23)cc1	1.13
Cc1nc[nH]c1CN1CCCN(c2nc3ccccc3s2)CC1	-2.7
Cc1ccc(C)c2c(O)cc(CN3CCC(=O)NCC3C)nc12 (stereo unspecified)	-8.42
CCc1cc(N2CCC(n3cc(C(=O)NC4CC4)nn3)CC2)ncn1	12.5
CCC(c1nc(C(C)C)nn1-c1ccccn1)n1cccn1 (stereo unspecified)	17.2
Cc1nn(C)c(C)c1CN(C)C(=O)C1COc2ccccc2C1 (stereo unspecified)	-3.84
NC(=O)c1ccnc(N2CCCC(CO)(Cc3ccc(F)cc3)C2)c1 (stereo unspecified)	-6.25
CC(=O)Nc1ccc(-c2ccccc2NC(=O)CN)cc1	28.6
N#Cc1cccc(NC2CC(=O)N(CCCc3ccccc3)C2)n1 (stereo unspecified)	-19.4
CC1=CC[C@@H]2CN(C(=O)c3ccc(-c4nnn(C)n4)cc3)C[C@@H]2C1	6
CC(C)c1ccccc1NC(=O)N1C[C@@H]2CC[C@H](C1)N(C)C2=O	27.2
Cc1nc[nH]c1C(=O)N1CCC2(CN(C)C(=O)O2)C1 (stereo unspecified)	-7.68
O=c1n(CC2CC2)nc(C2CCNCC2)n1Cc1ccccc1	9.69
Cc1oncc1C(=O)N1CCC(O)(CN2CCOCC2)C(C)(C)C1 (stereo unspecified)	-2.15
CC(=O)N[C@@H]1CN(C(=O)c2cc(C)oc2C)C[C@H]1c1ccc(C)o1	23.3
Cc1cccc(C)c1OC1CN(C(=O)C2CC(=O)N(C(C)(C)C)C2)C1 (stereo unspecified)	18.1
Cc1ccc([C@@H]2CN(C(=O)c3ccccc3C)C[C@H]2N(C)C)cc1	2.46
Cc1noc(C)c1CN1C(=O)[C@H]2CC[C@@H]1CN(Cc1ncc[nH]1)C2	-0.471

Structure (SMILES)	cytotoxicity at 70.5 h [%]
CCN(CC)S(=O)(=O)NC1CCCc2nc(-c3ccccc3)ncc21 (stereo unspecified)	-7.72
CCN(C)C[C@@H]1CN(C(=O)NC2CCCCC2)C[C@@H]1CO	-10.1
CC1(C(=O)NCc2cccnc2Oc2ccc(F)c(F)c2)CCCNC1 (stereo unspecified)	8.1
CCCc1cc(CN(C)C2CC(C)(C)NC(C)(C)C2)n[nH]1	-4.42
Cc1[nH]c2ccc(C#N)cc2c1CCNc1ncnc2c1CCNCC2	-1.54
CCCn1nc(C)c(CNC(=O)C2COc3ccc(OC)cc3C2)c1C (stereo unspecified)	-2.92
CN(C)c1cnn(Cc2nc3ccccc3n2C)c(=O)c1	-12.8
CC(=O)c1cc(CC(=O)NCc2ccsc2)cs1	-1.03
O=C(CCc1cc2n(n1)CCN(Cc1ccncc1)C2)N1CCCC1	18.6
CN(C)c1ccc(-c2cc(C(=O)O)cc(S(=O)(=O)NC3CC3)c2)cc1	-12.9
COCC(=O)N1CCCN(c2ncnc3c2CCNCC3)CC1	-5.03
Cc1n[nH]c(C)c1CNc1ccc(-c2nc(C3CC3)no2)cn1	-0.0598
CN(C)CCCn1ccnc1C1CCN(C(=O)Cc2cccnc2)CC1	9.19
COCc1noc(CCNc2nc(CC3CC3)nc3c2CCNCC3)n1	8.9
Cc1cc2cccc(NC(=O)N3CC[C@@H]4CC[C@H](C3)N4C)c2o1	-5.41
CCS(=O)(=O)N1CCC(c2nccn2Cc2ccncc2)CC1	-1.9
c1cc2c(cc1-c1noc3c1CN(C1CCSCC1)CC3)OCO2	12.6
Oc1cccc(-c2cc(C3CCN(Cc4cncnc4)C3)ccn2)c1 (stereo unspecified)	-3.45
Cc1nn(C)cc1CN1CCCn2nc(CNC(=O)C3CCC3)cc2C1	-3.2
CCCN1CCCC2(CCN(S(=O)(=O)c3cccnc3)C2)C1=O (stereo unspecified)	2.74
COc1cccc(-c2n[nH]c3c2CN(C(=O)C2=C(C)OCCO2)CC3)c1	-4.06
O=C(c1cnc[nH]1)N1CCC(Oc2cccnc2)CC1	-8.28
CN(C)C(=O)c1coc(COc2ccccc2)n1	15.6

Structure (SMILES)	cytotoxicity at 70.5 h [%]
O=C1CCC2(CCCN(c3ncnc4[nH]cnc34)C2)CN1CCCO (stereo unspecified)	-14.3
CC(=O)c1cnc(NCCN2CCCC2)nc1C	-0.135
CC(=O)c1cc(CN2CCCCC2c2nc3cc(F)ccc3[nH]2)cs1 (stereo unspecified)	-5.07
CC(=O)c1cc(CC(=O)N2CCN(S(=O)(=O)c3ccccc3)CC2)cs1	-1.54
Cc1ccc(Cl)cc1-n1nnnc1C1(N2CCCC2)CCCCC1	-12.7
Cc1ccc(OCCN(C)C(=O)CCCC(N)=O)c(C)c1	-5.93
CC(C)N1CCC(CC(=O)N(C)CC(=O)c2ccc(O)cc2)CC1	-1.48
Cc1cc(CN2CCC(C3CCN(CCc4ccccc4)CC3)C2)[nH]n1 (stereo unspecified)	-0.097
O=C1OCCN1CCNCC1(O)CCCN(CCC2CCCCC2)C1=O (stereo unspecified)	-5.99
O=C1NCCN(Cc2cccnc2)C1CC(=O)N1CCc2n[nH]cc2C1 (stereo unspecified)	-0.172
COc1ccc2c(c1)ncn2C[C@]1(O)CCCN2CCCC[C@@H]21	-13.3
Cn1ccnc1-c1cn(Cc2cn3c(n2)SCC3)nn1	-5.95
Cn1ccnc1CCC1CCCCN1Cc1cnc(N2CCCC2)nc1 (stereo unspecified)	22.9
O=C(CCn1cc(Cl)cn1)N1CCC2(CC1)OCCCC2O (stereo unspecified)	12
COCC(=O)N1C[C@@H](CN2CCCN(C)CC2)[C@@H](CO)C1	-4.72
O=C(c1cncc(F)c1)N1CCC(c2ncc[nH]2)CC1	-7.04
COc1cccc(OC2CN(C(=O)c3sccc3C)C2)c1	-4.06
COc1ccc(CCC2CCCN(C(=O)c3cnc(N)nc3C)C2)cc1 (stereo unspecified)	-18.9
CCN1CCC(CNC(=O)C(c2ccccc2F)N(C)C)(N(C)C)CC1 (stereo unspecified)	-2.78
Cc1ccc(C(=O)N2CCCn3nc(CCC(=O)O)cc3C2)cc1Cl	-2.03
Cc1ccc(CN2CCNC(C(=O)NC3CC3)C2)cc1C (stereo unspecified)	-10.4
CC(C)=CCN1CC2(CCN(Cc3c(F)cccc3F)CC2)CC1=O	23.4
N#Cc1cccc(C(=O)N2C[C@H](CO)C[C@H](CN3CCCC3)C2)c1	2.99

Structure (SMILES)	cytotoxicity at 70.5 h [%]
CC(=O)N[C@@H]1CN(C(=O)c2cnccn2)C[C@H]1c1ccc(C)cc1	-11.4
Cc1cccnc1NCCNC(=O)C1CCN(C(=O)N(C)C)CC1	12.2
COCCn1cnnc1Cn1ccnc1-c1ccccc1C	1.73
COc1ccccc1CCN[C@@H]1c2ccccc2C2(CCNCC2)[C@H]1O	-4.74
Cc1ccc2[nH]c(CN(C)c3cc(CCN)nc(C)n3)nc2c1	-8.93
CCOc1ccc2nc(CN3CCOC(CN)C3)ccc2c1 (stereo unspecified)	-3.44
OCC1(CC2CC2)CCCN(Cc2cnc(C3CCCCC3)nc2)C1 (stereo unspecified)	-5.05
COCc1cc(NCCc2ccc(OC)cc2)n2nccc2n1	-24.5
COCC1(C(=O)N2CCC(c3nccn3CC3CC3)CC2)CCC1	2.4
CN(C(=O)CN1CCCC1=O)C1CCCN(C2Cc3ccccc3C2)C1 (stereo unspecified)	-3.18
CC(C)NS(=O)(=O)c1cc(C(=O)O)cc(-c2ccccc2F)c1	-10.8
CC(C)c1nccc(CN(C)Cc2cccc(-n3cccn3)c2)n1	-1.47
CC(C)Cn1cncc1Cn1cccc(C(F)(F)F)c1=O	-2.53
CCc1cc(-c2cc[nH]n2)nc(N2CCCC2)n1	-7.99
Cc1cc(CNC(=O)CC2CCN(C(C)C)CC2)n(C)n1	16.3
Cc1ccc(C)c(S(=O)(=O)N2CCN(C)C3(CCC(=O)N(C)CC3)C2)c1 (stereo unspecified)	-13.3
CN(C)CCN(Cc1ccsc1)C(=O)C1=NNC(=O)CC1	-9.01
CCCC(C)NCc1cnc(-c2cccc(C)c2)nc1 (stereo unspecified)	1.72
CC(=O)c1ccc(NCc2cc3n(n2)CCCN(S(C)(=O)=O)C3)nc1	-1.18
COc1cc(-c2nc3c([nH]2)CCCNC3=O)ccc1OC(C)C	-3.41
CCCOCCN1CCC2(CC1)CC(=O)N(Cc1cc(F)cc(F)c1)C2	-3.73
COc1ccccc1CN1C(=O)O[C@@H]2CN(C(C)C)C[C@@H]21	-0.224
O=C(c1ccccc1C1CCNC1)N1CCC(N2CCC(O)CC2)CC1 (stereo unspecified)	-12.4

Structure (SMILES)	cytotoxicity at 70.5 h [%]
CSc1nnc(CC2CCN(C(=O)COc3cccnc3)CC2)n1C	-8.54
NC(=O)C1CCN(C(C(=O)O)c2ccc(Cl)c(C(F)(F)F)c2)CC1 (stereo unspecified)	13.4
Cc1cc(CN(C)C(=O)CN2CC3(CCNCC3)OC2=O)n(C)n1	-9.14
c1ccc(CN2CCC(NCCSc3ncn[nH]3)C2)cc1 (stereo unspecified)	30.4
CCNc1ccnc(N2CCCC(CCOC)(C(=O)O)C2)n1 (stereo unspecified)	23.1
CCCc1cc(N2CCC(Cc3cccc(C(N)=O)c3)C2)nc(C)n1 (stereo unspecified)	-5.44
CC(C)(C(=O)N1CCCC(OCc2cccnc2)C1)n1cccc1 (stereo unspecified)	-4.94
COc1ccccc1CC(=O)N1CCCC(c2nccn2CC(N)=O)C1 (stereo unspecified)	23.1
CCc1cccc(C)c1NC(=O)c1ccccc1N(C)S(C)(=O)=O	26.1
Cc1ccsc1CCNC(=O)CCC1CCCCN1C (stereo unspecified)	-15
CC(C)(C)NS(=O)(=O)c1ccc(NC(=O)C2CC2)cc1	7.98
COc1coc(CN2CCCC(CCc3ccc(F)cc3)C2)cc1=O (stereo unspecified)	2.53
CC(c1ccco1)n1cc(-c2cc(CN3CCCC3)cs2)nn1 (stereo unspecified)	-0.331
COc1ccccc1Oc1ncccc1CNC(=O)[C@@H](N)[C@@H](C)O	-1.67
CC(=O)N1CCCN(C(C(=O)O)c2ccccc2OC(F)(F)F)CC1 (stereo unspecified)	-7.53
CCC(C(=O)N(Cc1ccccc1OC)C1CC1)n1cccn1 (stereo unspecified)	-10.3
Cc1nc(C2CCCNC2)cc(N(C)CCc2cn[nH]c2)n1 (stereo unspecified)	20.1
O[C@H]1[C@H](NCCSc2ccccn2)c2ccccc2C12CCNCC2	1.07
CC(C)(O)CCc1ccc(C(=O)NCCC2CCOC2)cc1 (stereo unspecified)	-2.2

Reference: ChEMBL document CHEMBL3507680, “University of Dundee, Gates Library screen for HepG2 cell viability”
